How the values were obtained:
[1] = tested on: irradiated scalp skin; test: Dermal thickness of irradiated skin, H&E stained sections; assay type: in vivo, mice; conditions: after DFO treatment, before fat grafting; saline 256.71±16.76; not significantly less
Method: Adult 60-day-old male Crl:NU-Fox1^NU immunocompromised mice were used for experiments in this study. Twelve mice were treated with a total of 30 Gy external beam radiation, delivered as six fractionated doses of 5 Gy each over 12 days, followed by 5 weeks of recovery. An additional six non-irradiated mice were used as healthy controls for laser Doppler analysis (LDA) and skin analysis. Irradiated mice were divided into two treatment groups: a DFO experimental group and saline control group. Following recovery, mice underwent injection of either DFO (1 mg in 100 μl saline) or 100 μl of saline alone beneath the dermis every other day for a total of seven treatments. […] For skin analysis, scalp skin biopsy was harvested from both treatment groups following completion of radiation and then 8 weeks following fat grafting. […] Vascularity was determined with CD31 immunoflourescent staining (1:100 Ab28364; Abcam; Cambridge, Mass. and 1:200 AF547; Thermo Fisher Scientific; Waltham, Mass.) and DAPI counterstaining to visualize cell nuclei. Fluorescent images were obtained using an X-Cite 120 Fluorescence Illumination System (Lumen Dynamics Group, Inc.; Ontario, Canada) at the 20× objective. Quantification of CD31 staining was performed using ImageJ (National Institutes of Health; Bethesda, Md.), with pixel-positive area per high power field measured to determine vascular density (11). […]

[2] = tested on: irradiated scalp; test: Laser Doppler analysis of perfusion of irradiated scalp, DFO injected beneath the dermis (Example 1); assay type: in vivo, mice
Method: (§1) Adult 60-day-old male Crl:NU-Fox1^NU immunocompromised mice were used for experiments in this study. Twelve mice were treated with a total of 30 Gy external beam radiation, delivered as six fractionated doses of 5 Gy each over 12 days, followed by 5 weeks of recovery. An additional six non-irradiated mice were used as healthy controls for laser Doppler analysis (LDA) and skin analysis. Irradiated mice were divided into two treatment groups: a DFO experimental group and saline control group. Following recovery, mice underwent injection of either DFO (1 mg in 100 μl saline) or 100 μl of saline alone beneath the dermis every other day for a total of seven treatments.
(§2) After irradiation, fat grafting was performed on the irradiated mice. After informed consent was obtained, lipoaspirate was obtained from three healthy female donors, with no other medical co-morbidities under an approved IRB protocol #2188. Lipoaspirate was allowed to settle for 15 minutes for layers to separate by gravity sedimentation, and then oil and blood layers were removed by vacuum aspiration. The remaining fat layer was centrifuged at 1300 rcf for 3 minutes at 4° C. Any remaining oil and blood was again removed and the remaining fat was transferred into 1 cc syringes for injection through a 14-gauge needle. Fat grafting was performed beneath the scalp by creating a subcutaneous tunnel with the needle and then injecting 200 μl of lipoaspirate in retrograde fashion while pulling the needle out.
Laser Doppler Analysis (“LDA”) was performed to measure perfusion at the irradiated site using a Perimed PIM 3 laser Doppler perfusion imager (Datavagen, Sweden). The signal generated by the LDA, laser Doppler perfusion index (LDPI), was used for comparative purposes. LDPI is a product of the blood cell velocity and concentration and is represented by a color spectrum, with black/dark blue representing low perfusion and red representing high perfusion. […]
Five images were taken of each mouse, and the average LDPI of the five images was recorded. […]

[3] = tested on: fat grafts in irradiated scalp; test: Fat graft volume retention by micro-CT in DFO preconditioned irradiated scalp (Example 1); assay type: in vivo, mice
Method: as §1, §2
Mice were also imaged using a MicroCAT-II in vivo X-Ray micro-CT scanner (Imtek, Inc.; Knoxville, Tenn.) two days after fat graft injection for baseline volume measurements. Fat graft volume retention was then analyzed every two weeks over a total of 8 weeks using microcomputed tomography, and images were reconstructed as three-dimensional surfaces through cubic-spline interpolation. All reconstructions were performed by a single investigator to avoid inter-observer variability.

[4] = tested on: inguinal fat pads transplanted to parascapular subcutaneous pockets; conditions: DFO injected fat grafts; cited from earlier work

CC(=O)N(O)CCCCCNC(=O)CCC(=O)N(O)CCCCCNC(=O)CCC(=O)N(O)CCCCCN [DFO, Deferoxamine]
dermal thickness of irradiated skin [1]: 242.09±7.22 μm
laser Doppler perfusion index at the irradiated scalp ([2]; after four treatments of 1 mg DFO every other day beneath the dermis, 176.70±2.59 after irradiation, 265.23±7.01 pre-radiation baseline, mean±SE): 205.08±2.30 LDPI
laser Doppler perfusion index following fat grafting ([2]; eight weeks following grafting, saline 119.18±4.09, p>0.05): 127.78±2.29 LDPI
laser Doppler perfusion index following fat grafting ([2]; two weeks following injection of fat grafts, saline control 65.72±2.02, p<0.05): 86.33±2.00 LDPI
fat graft volume retention ([3]; two weeks after fat grafting, saline control 74.03): 89.24%
fat graft volume retention ([3]; week 6 after fat grafting, saline 52.40, p<0.05): 73.17%
fat graft volume retention ([3]; week 8 after fat grafting, saline 49.47, p<0.05): 71.75%
inflammation and fibrosis in fat grafts [4]: more inflammation and fibrosis

Reference: patent publication US11331288B2, “Conditioning irradiated tissue for increasing vascularity” (THE BOARD OF TRUSTEES OF THE LELAND STANFORD JUNIOR …, priority 2017, dated 2022)
